Results: US20230312550A1, “N-(2-(4-CYANOTHIAZOLIDIN-3-YL)-2-OXOETHYL)-QUINOLINE-4-CARBOXAMIDES” (AstraZeneca AB, priority 2020, published 2023)
Values after ≈ are worked out from the molar mass of the structure shown. Like-named read-outs stand apart in the source and are kept apart here.

Columns and labels:
[1] = molecular target: human Fibroblast activation protein alpha (hFAP) (Homo sapiens (Human), UniProt Q12884); test: hFAP inhibition assay (tight binders); assay type: biochemical; conditions: Ala-Pro-AMC 20 μM, n = 1 or geometric mean n = 2-6; also: hFAP 2.4 pM
Method: The plates were read on a PHERAstar® reader with excitation 340 nm and emission 460 nm. Data were analyzed in Genedata Screener®. IC50 values were determined by plotting % inhibition versus log compound concentration and using a one site dose response model.

[2] = molecular target: hFAP (M39-A757) (Homo sapiens (Human), UniProt Q12884); test: hFAP binding assay (surface plasmon resonance); conditions: SPR, 20° C.; for hFAP Binding assay k(off) / hFAP Binding assay k(on): single cycle kinetics; for Kd: n = 1 or geometric mean n = 2-4
[3] = molecular target: Prolyl endopeptidase, Prolyl Oligopeptidase (hPREP) (Homo sapiens (Human), UniProt P48147); test: hPrep inhibition assay; assay type: biochemical; conditions: hPREP 0.6 nM, Z-Gly-Pro-amino-methylcoumarin 50 μM; read-out: PREP IC50
In short: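 Recombinant human PREP at 0.6 nM final with Z-Gly-Pro-AMC substrate at 50 μM final in Tris-HCl pH 7.5, NaCl, Triton X-100, glutathione; 15 min rt preincubation then 20 min rt reaction in dark. AMC fluorescence (ex 340/em 460 nm); IC50 from one-site dose-response fit of % inhibition.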

[4] = rat, hepatocytes
[5] = in vitro; conditions: human, microsomes, HLM CLint
Method: (§2) Metabolic stability in HLM was measured as described in J Comput Aided Mol Des 2015, 29, 795.

[6] = physchem; conditions: kinetic from dmso stock
Method: (§3) Kinetic solubility was measured as described in Comput Aided Mol Des 2015, 29, 795.

[7] = molecular target: human dipeptidylpeptidase 7 (hDPP7) (Homo sapiens (Human), UniProt Q9UHL4); test: hDPP7 inhibition assay; assay type: biochemical; conditions: hDPP7 15 nM, Ala-Pro-amino-methylcoumarin 5 μM, n = 1
Method: Compounds were tested in a biochemical inhibition assay using human dipeptidylpeptidase 7 (hDPP7) enzyme at 15 nM FAC (BPS Bioscience, #80070) and the substrate Ala-Pro-amino-methylcoumarin (BPS Bioscience, #80305) at 5 μM FAC. The enzymatic reactions were conducted in duplicate at rt for 30 min in 50 μL DPP assay buffer (BPS Bioscience, #80300). Compound solutions (in DMSO) at 10 CR, 3 fold dilution series were prepared in assay buffer ten-fold higher than the final concentration, and 5 μL of the dilution was added to a 50 μL reaction so that the highest compound concentration was 100 μM FAC and the concentration of DMSO was 1% in all wells. The plates were read on a Tecan Infinite M1000 microplate reader with excitation 340 nm and emission 460 nm. Data were analyzed in Graph Pad Prism. IC50 values were determined by plotting % inhibition versus log compound concentration and using a one site dose response model. Raw data signals were normalized using 1% DMSO as 0% control and no enzyme as 100% inhibitor control.

[8] = molecular target: human dipeptidylpeptidase 9 (hDPP9) (Homo sapiens (Human), UniProt Q86TI2); test: hDPP9 inhibition assay; assay type: biochemical; conditions: hDPP9 0.4 nM, Ala-Pro-amino-methylcoumarin 5 μM, n = 1
Method: (§1) Compounds were tested in a biochemical inhibition assay using human dipeptidylpeptidase 9 (hDPP9) enzyme at 0.4 nM FAC (BPS Bioscience, #80090) and the substrate Ala-Pro-amino-methylcoumarin (BPS Bioscience #80305) at 5 μM FAC. The enzymatic reactions were conducted in duplicate at rt for 30 min in 50 μL DPP assay buffer (BPS Bioscience, #80300). […] The plates were read on a Tecan Infinite M1000 microplate reader with excitation 340 nm and emission 460 nm. Data were analyzed in Graph Pad Prism. IC50 values were determined by plotting % inhibition versus log compound concentration and using a one site dose response model. Raw data signals were normalized using 1% DMSO as 0% control and no enzyme as 100% inhibitor control.

[9] = Metabolic stability in human hepatocytes (hHep); assay type: in vitro ADME; conditions: n = 1 or geometric mean of n = 2
[10] = molecular target: Fibroblast Activation Protein alpha (FAP) (Mus musculus (Mouse), UniProt P97321); test: in vivo
Method: The effect of test compound on FAP enzyme activity in mouse plasma was evaluated in an enzymatic assay using the Fibroblast Activation Protein alpha (FAP) specific fluorogenic substrate dipeptide-Coumarin, Ala-Pro-AMC, (ARI-3144).
Male C57Bl/6 mice (Charles River, Germany), 8 weeks of age, were single housed in a temperature-controlled room with a 12-hour light/dark cycle (06:00-18:00 light). The mice had ad libitum access to water and rodent chow diet (R70, Lactamin, Kimstad, Sweden), and were acclimated for 5 days upon arrival. After acclimation, all mice received a single oral dose of test compound (3 or 10 mg/kg). Blood samples for whole blood compound exposure measurements were taken at 0.25, 0.5, 1, 2, 4, 8 and 24 h post oral dosing. Samples were collected in EDTA capillary tubes (20 μL, K2E, REF 19.447) and were transferred to a 96-deep well plate (NUNC, Thermo Discher Scientific) and stored at −20° C. until further analyses were performed. Blood samples for plasma FAP enzyme activity measurements were taken at 0, 0.25, 0.5, 1, 2, 8 and 24 h post dosing. 25 μL of whole blood was collected in EDTA Microvette® CB 300 (K2E, REF 16.444.100) tubes, and were centrifuged at 4,000×g for 5 min. 10 μL of plasma was then transferred to PCR tubes and stored at −20° C. until further analysis was performed. All blood samples were taken by vena saphena puncture.
Recombinant human FAP (PB-17-1837, construct PL-17-0278, cd33-FAP (27-757)-6His, Mw85926 Da) was used as a standard for this assay. […] The plates were read on a Beckman Paradigm reader with excitation 360 nm and emission 465 nm. Fluorescence measurements were performed with kinetic read every 5 minutes for 60 min at room temperature. Data were analyzed in Excel (IDBS XLfit Add-In) using a Linear Regression (y=k*x+m) model to prepare a human recombinant FAP standard curve.
On the day of the assay, plasma was diluted (1:2) to 20 μL volume in buffer (PBS, 0.1% BSA) and 7.5 μL was transferred to the assay plate (384-well black, fluotrack PS, Greiner 781076). Ala-Pro-AMC (stock solution in 10 mM DMSO) was diluted in buffer (PBS, 0.1% BSA) to 150 μM concentration (180 μL stock solution to 12 mL buffer) and 7.5 μL added to the assay plate followed by a pipetting mix. The plates were read on a Beckman Paradigm reader with excitation 360 nm and emission 465 nm. Fluorescence measurements were performed with kinetic read every 5 minutes for 60 minutes at room temperature. As noted above, FAP cleaves Ala-Pro-AMC to release free AMC which is measured as a fluorescent signal.
The in vivo potency IC50 of each test compound was then estimated by relating the plasma exposure C of the compound to target engagement E in plasma using the following equation:
where E0 is the FAP baseline in plasma prior to dosing and Imax is the maximum effect of the compound. Data from each target engagement experiment were considered separately and therefore slightly different estimates of FAP baseline for each compound were obtained. […] The parameter estimation was done in Phoenix WinNonlin Certara build 8.1.0.3530 with the algorithm ‘Naïve pooled’ as parameter estimation method.

[11] = Kinetic solubility; conditions: kinetic from dmso stock, Solubility, kinetic solubility; n = 1 or average of n = 2-3
Method: as §3

[12] = Caco-2 cell permeability; conditions: human
Method: (§4) Caco-2 cell permeability was measured as described in Mol Pharm 2017, 14, 1601.

[13] = Metabolic stability in rat hepatocytes (rHep); conditions: n = 1 or geometric mean of n = 2-3
[14] = Metabolic stability in human liver microsomes (HLM); conditions: human, HLM CLint, n = 1 or average of n = 2-3
Method: as §2

[15] = molecular target: FAP (Mus musculus (Mouse), UniProt P97321); test: FAP plasma inhibition assay, mouse plasma; assay type: biochemical; conditions: mouse plasma diluted 1:67, Ala-Pro-AMC 75 μM
In short: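 K2EDTA plasma served as enzyme source, human diluted 1:40 and mouse 1:67, in PBS with 0.1% BSA. Compounds ran as a 10-point 3-fold series from 500 nM final, in duplicate, 40 min at rt in the dark, with fluorescence read against a pre-substrate blank. IC50 came from % inhibition versus log concentration.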

[16] = molecular target: human dipeptidylpeptidase 8 (hDPP8) (Homo sapiens (Human), UniProt Q6V1X1); test: hDPP8 inhibition assay; assay type: biochemical; conditions: Ala-Pro-amino-methylcoumarin 5 μM, n = 1
Method: as §1, with “The” for “Compounds were tested in a biochemical inhibition assay using human dipeptidylpeptidase 9 (hDPP9) enzyme at 0.4 nM FAC (BPS Bioscience, #80090) and the substrate Ala-Pro-amino-methylcoumarin (BPS Bioscience #80305) at 5 μM FAC. The”

[17] = in vitro; conditions: human, Caco-2
Method: as §4

[18] = molecular target: FAP (Homo sapiens (Human), UniProt Q12884); test: hFAP inhibition assay; assay type: biochemical; conditions: hFAP […], Ala-Pro-AMC 20 μM; n = 1 or geometric mean n = 2-3
In short: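 Human FAP (0.48 nM) in 100 mM Tris HCl, 100 mM NaCl, 0.05% Chaps, pH 7.4 was preincubated 15 min at rt in the dark with compounds (10-point, 3-fold series from 50 μM). Substrate was added from a 40 μM solution, then 30 min at rt. Fluorescence read at ex 340/em 460 nm; IC50 from one-site dose-response fit of % inhibition.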

Chain of Prolyl endopeptidase, Prolyl Oligopeptidase (hPREP) (P48147 whole entry): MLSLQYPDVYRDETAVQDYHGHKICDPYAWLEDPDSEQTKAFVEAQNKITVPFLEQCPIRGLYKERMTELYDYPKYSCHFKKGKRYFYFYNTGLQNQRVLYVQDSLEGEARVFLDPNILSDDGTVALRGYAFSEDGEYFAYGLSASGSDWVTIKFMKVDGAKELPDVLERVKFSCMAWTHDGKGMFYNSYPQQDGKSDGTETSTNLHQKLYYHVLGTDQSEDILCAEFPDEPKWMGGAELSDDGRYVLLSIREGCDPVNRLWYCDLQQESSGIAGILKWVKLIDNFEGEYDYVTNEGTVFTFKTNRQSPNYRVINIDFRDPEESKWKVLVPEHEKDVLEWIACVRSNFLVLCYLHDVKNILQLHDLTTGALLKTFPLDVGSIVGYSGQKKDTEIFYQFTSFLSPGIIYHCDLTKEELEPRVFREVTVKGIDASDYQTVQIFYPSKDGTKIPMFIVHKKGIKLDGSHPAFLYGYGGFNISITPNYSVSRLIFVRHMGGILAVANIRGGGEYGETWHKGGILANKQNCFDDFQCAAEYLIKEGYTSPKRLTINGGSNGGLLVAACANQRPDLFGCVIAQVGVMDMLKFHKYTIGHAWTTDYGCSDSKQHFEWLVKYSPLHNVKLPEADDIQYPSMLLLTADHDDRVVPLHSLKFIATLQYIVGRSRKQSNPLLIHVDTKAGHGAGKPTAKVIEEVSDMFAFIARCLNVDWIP
Chain of Fibroblast Activation Protein alpha (FAP) (P97321 24-761): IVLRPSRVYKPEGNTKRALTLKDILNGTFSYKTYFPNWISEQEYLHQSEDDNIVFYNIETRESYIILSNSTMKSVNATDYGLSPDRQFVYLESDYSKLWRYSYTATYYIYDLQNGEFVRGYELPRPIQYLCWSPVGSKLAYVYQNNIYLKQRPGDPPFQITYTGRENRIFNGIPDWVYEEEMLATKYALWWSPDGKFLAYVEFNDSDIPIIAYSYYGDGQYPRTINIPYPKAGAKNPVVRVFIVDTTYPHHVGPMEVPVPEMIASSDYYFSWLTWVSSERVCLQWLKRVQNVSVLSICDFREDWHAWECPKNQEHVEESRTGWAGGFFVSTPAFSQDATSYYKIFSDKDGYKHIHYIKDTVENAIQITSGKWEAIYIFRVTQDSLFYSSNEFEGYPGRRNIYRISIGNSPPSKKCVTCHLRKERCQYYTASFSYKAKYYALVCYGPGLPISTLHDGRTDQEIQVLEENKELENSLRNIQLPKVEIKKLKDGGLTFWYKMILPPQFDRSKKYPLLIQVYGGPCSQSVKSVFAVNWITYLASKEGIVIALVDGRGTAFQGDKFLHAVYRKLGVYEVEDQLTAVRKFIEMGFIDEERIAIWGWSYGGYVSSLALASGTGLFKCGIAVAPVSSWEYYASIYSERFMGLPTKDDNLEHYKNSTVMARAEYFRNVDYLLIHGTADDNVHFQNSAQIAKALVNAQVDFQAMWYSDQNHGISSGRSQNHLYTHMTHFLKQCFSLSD
Chain of FAP (Mus musculus (Mouse), UniProt P97321) (P97321 24-761): as above
Chain of human dipeptidylpeptidase 9 (hDPP9) (Q86TI2 whole entry): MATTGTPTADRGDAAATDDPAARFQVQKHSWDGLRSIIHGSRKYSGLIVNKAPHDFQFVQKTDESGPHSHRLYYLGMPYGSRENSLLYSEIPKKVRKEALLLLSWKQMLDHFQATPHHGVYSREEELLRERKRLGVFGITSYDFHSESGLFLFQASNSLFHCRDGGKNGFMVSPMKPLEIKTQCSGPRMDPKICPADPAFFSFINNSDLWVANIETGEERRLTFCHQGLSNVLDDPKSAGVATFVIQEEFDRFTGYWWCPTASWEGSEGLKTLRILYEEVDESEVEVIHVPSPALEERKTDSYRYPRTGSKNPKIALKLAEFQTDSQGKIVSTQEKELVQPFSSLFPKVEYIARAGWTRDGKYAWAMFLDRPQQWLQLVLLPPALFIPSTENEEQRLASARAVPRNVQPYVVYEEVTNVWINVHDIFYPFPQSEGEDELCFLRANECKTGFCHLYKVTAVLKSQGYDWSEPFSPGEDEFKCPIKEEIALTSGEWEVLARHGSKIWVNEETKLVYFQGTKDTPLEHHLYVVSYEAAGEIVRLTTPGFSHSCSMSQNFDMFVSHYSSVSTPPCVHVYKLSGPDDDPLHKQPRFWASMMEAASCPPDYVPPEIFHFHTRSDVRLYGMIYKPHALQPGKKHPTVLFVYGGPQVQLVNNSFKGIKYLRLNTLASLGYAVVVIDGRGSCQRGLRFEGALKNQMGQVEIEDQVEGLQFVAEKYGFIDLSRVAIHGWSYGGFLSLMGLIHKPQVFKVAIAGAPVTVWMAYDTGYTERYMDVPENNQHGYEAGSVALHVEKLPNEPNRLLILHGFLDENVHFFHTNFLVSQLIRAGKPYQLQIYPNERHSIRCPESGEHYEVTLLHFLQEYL
Chain of hFAP (M39-A757) (Q12884 39-757): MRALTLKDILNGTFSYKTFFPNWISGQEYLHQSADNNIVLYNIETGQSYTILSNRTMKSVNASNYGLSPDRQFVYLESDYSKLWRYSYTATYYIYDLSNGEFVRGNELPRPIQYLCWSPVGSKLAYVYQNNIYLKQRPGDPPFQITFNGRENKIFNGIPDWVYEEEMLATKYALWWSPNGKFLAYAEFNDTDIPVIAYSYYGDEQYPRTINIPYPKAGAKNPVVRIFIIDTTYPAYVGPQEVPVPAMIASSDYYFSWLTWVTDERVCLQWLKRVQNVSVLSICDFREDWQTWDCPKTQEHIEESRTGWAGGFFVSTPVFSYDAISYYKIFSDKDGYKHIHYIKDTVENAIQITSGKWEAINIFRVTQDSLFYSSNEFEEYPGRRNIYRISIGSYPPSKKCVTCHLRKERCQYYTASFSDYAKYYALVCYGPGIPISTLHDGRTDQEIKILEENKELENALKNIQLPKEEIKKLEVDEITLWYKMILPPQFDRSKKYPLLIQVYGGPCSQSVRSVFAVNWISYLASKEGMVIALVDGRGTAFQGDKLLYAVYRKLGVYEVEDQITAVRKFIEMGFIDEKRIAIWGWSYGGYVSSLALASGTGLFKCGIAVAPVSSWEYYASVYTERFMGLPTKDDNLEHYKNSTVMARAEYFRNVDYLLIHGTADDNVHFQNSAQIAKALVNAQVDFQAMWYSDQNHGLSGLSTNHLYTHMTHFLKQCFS
Chain of human Fibroblast activation protein alpha (hFAP) (Q12884 38-760): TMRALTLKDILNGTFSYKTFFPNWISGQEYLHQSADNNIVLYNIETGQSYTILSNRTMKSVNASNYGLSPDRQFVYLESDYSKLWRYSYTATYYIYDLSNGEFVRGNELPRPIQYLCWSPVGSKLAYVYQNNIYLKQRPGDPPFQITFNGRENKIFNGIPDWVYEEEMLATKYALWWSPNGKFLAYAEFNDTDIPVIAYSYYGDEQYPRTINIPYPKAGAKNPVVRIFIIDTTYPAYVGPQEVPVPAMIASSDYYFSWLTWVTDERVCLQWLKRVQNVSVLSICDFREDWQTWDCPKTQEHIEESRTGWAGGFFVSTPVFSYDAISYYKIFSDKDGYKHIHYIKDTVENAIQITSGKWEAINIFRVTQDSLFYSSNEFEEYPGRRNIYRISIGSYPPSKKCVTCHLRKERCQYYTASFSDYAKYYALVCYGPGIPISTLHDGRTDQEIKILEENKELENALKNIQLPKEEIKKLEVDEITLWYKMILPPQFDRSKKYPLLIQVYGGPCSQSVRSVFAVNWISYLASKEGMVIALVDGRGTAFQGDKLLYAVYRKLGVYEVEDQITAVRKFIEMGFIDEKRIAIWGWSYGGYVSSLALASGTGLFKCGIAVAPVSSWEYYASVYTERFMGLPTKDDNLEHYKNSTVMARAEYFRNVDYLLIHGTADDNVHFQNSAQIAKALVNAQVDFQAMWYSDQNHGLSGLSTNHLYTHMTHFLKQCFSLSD
Chain of human dipeptidylpeptidase 8 (hDPP8) (Q6V1X1 whole entry): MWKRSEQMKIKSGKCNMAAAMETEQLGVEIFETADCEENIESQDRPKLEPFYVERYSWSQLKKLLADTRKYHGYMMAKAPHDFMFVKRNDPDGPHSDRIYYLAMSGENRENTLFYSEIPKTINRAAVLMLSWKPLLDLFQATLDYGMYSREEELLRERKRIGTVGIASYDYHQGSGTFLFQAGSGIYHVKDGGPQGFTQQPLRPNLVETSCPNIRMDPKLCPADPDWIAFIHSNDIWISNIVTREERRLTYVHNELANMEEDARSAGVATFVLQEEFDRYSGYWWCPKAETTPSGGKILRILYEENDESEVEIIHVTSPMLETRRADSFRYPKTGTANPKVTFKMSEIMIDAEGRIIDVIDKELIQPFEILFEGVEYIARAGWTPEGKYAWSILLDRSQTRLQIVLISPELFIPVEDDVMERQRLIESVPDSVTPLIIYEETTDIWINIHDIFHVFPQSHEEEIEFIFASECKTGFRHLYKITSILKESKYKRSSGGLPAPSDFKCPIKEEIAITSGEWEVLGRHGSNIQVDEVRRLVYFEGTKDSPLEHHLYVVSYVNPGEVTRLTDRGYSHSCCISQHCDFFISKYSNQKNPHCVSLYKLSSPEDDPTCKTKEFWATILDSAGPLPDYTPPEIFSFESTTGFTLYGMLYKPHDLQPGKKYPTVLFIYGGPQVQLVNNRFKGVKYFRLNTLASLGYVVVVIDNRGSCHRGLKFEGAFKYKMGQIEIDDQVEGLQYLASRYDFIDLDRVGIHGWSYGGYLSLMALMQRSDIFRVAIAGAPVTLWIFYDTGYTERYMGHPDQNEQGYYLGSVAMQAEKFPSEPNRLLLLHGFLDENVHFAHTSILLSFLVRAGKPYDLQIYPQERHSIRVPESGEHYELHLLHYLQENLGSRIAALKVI
Chain of FAP (Homo sapiens (Human), UniProt Q12884) (Q12884 38-760): as the sequence (Q12884 38-760) above

Compound	IC50 [7] [nM]	IC50 [8] [nM]	IC50 [10] [nM]	IC50 [15] [nM]	IC50 [1] [nM]	hFAP Binding assay k(off) [2] [s⁻¹]	hFAP Binding assay k(on) [2] [M⁻¹ s⁻¹]	Kd [2] [nM]	IC50 [3] [nM]	rHep CLint [4] [μL/min/1E6]	microsomal CLint [5] [µL/min/mg]	solubility [6] [µM]	further results
N#C[C@@H]1CSCN1C(=O)CNC(=O)c1ccnc2ccc(N3C4CCCC3COC4)cc12 [Example 86, 6-(3-Oxa-9-azabicyclo[3.3.1]nonan-9-yl)-N-(2-((R)-4-cyanothiazolidin-3-yl)-2-oxoethyl)quinoline-4-carboxamide]	–	–	–	–	0.074	0.000058	730000	0.081	360	44	160	640 (≈ 289 µg/mL)	–
N#C[C@@H]1CSCN1C(=O)CNC(=O)c1ccnc2ccc(N3CC4CC(C3)O4)cc12 [Example 77, 6-(6-Oxa-3-azabicyclo[3.1.1]heptan-3-yl)-N-(2-((R)-4-cyanothiazolidin-3-yl)-2-oxoethyl)quinoline-4-carboxamide]	–	–	–	–	0.051	0.000066	4800000	0.014	470	5.4	7.1	850 (≈ 360 µg/mL)	Papp A→B [17]: 0.57 ×10⁻⁶ cm/s; Papp B→A [17]: 16 ×10⁻⁶ cm/s; efflux ratio [17]: 29
N#C[C@@H]1CSCN1C(=O)CNC(=O)c1ccnc2ccc(N3C4CCC3CC4)cc12 [Example 209, (R)-6-(7-Azabicyclo[2.2.1]heptan-7-yl)-N-(2-(4-cyanothiazolidin-3-yl)-2-oxoethyl)quinoline-4-carboxamide]	–	–	–	–	0.15	0.000042	3200000	0.02	540	52	170	970 (≈ 409 µg/mL)	IC50 [18]: 0.44 nM

Now from value to molecule, other results behind:

IC50 [7] [nM]	IC50 [8] [nM]	IC50 [10] [nM]	IC50 [15] [nM]	Compound	IC50 [1] [nM]	hFAP Binding assay k(off) [2] [s⁻¹]	hFAP Binding assay k(on) [2] [M⁻¹ s⁻¹]	Kd [2] [nM]	IC50 [3] [nM]	rHep CLint [4] [μL/min/1E6]	microsomal CLint [5] [µL/min/mg]	solubility [6] [µM]	further results
> 100000	1400	9	–	C[C@H]1CN(c2ccc3nccc(C(=O)NCC(=O)N4CSC[C@H]4C#N)c3c2)CCO1 [Example 80, N-(2-((R)-4-Cyanothiazolidin-3-yl)-2-oxoethyl)-6-((S)-2-methylmorpholino)-quinoline-4-carboxamide]	–	–	–	–	–	–	–	–	hHep CLint [9]: <1 μL/min/1E6; solubility [11]: 980 µM (≈ 417 µg/mL); Papp A→B [12]: 0.81 ×10⁻⁶ cm/s; Papp B→A [12]: 25 ×10⁻⁶ cm/s; rHep CLint [13]: 2 μL/min/1E6; microsomal CLint [14]: 7.5 µL/min/mg
> 100000	1400	–	0.3	C[C@@H]1CN(c2ccc3nccc(C(=O)NCC(=O)N4CSC[C@H]4C#N)c3c2)C[C@@H](C)O1 [Example 70, N-(2-((R)-4-Cyanothiazolidin-3-yl)-2-oxoethyl)-6-((2R,6R)-2,6-dimethylmorpholino)-quinoline-4-carboxamide]	–	0.00014	5400000	–	1100	–	–	–	IC50 [16]: 4700 nM
> 100000	2500	7.2	0.2	C[C@@H]1CN(c2ccc3nccc(C(=O)NCC(=O)N4CSC[C@H]4C#N)c3c2)CCO1 [Example 72, N-(2-((R)-4-Cyanothiazolidin-3-yl)-2-oxoethyl)-6-((R)-2-methylmorpholino)-quinoline-4-carboxamide]	–	–	–	–	–	–	–	–	hHep CLint [9]: <1 μL/min/1E6; solubility [11]: > 1000 µM; Papp A→B [12]: 1.3 ×10⁻⁶ cm/s; Papp B→A [12]: 24 ×10⁻⁶ cm/s; rHep CLint [13]: 2.7 μL/min/1E6; microsomal CLint [14]: 9.7 µL/min/mg
> 100000	1500	19	0.5	C[C@@H]1CN(c2ccc3nccc(C(=O)NCC(=O)N4CSC[C@H]4C#N)c3c2)C[C@H](C)O1 [Example 68, N-(2-((R)-4-Cyanothiazolidin-3-yl)-2-oxoethyl)-6-((2R,6S)-2,6-dimethylmorpholino)-quinoline-4-carboxamide]	–	0.00011	1000000	–	1700	–	–	–	IC50 [16]: 6600 nM
